Test results from US20010024657A1, “Pharmaceutical oral patch for controlled release of pharmaceutical agents in the oral cavity” (priority 1997, published 2001).
“Also recorded” adds a separate entry of the source.

What was measured:
[1] = cited from earlier work; for solubility in buffer (in words): neutral to slightly basic, pH 7-8, high buffering capacity
[2] = In vivo release of clotrimazole from patches on the upper teeth, measured in saliva of volunteers; design: species or system human; conditions: total dose of 10 mg clotrimazole from patches
Method: Each volunteer attached two pharmaceutical oral patches of 5 mg clotrimazole to the buccal side of the upper teeth. No food or drink was allowed during the tests. Saliva samples were expectorated at given time intervals and tested for clotrimazole by HPLC. The patch was affixed to the tooth by using a drop of a solution of Eudragit S™ in ethanol.
The in vivo release from the patches made from three formulations of differing molar ratios of NaOH were tested in vivo. Formulation 193-5 has a low level of NaOH (percent molar ratio of 11.5%) and the patch made therefrom is expected to release drug even more slowly than the patch made from formulation 193-34.

time of clinically significant levels of clotrimazole in saliva [2] | SMILES | solubility in water (in words) [1] | solubility in buffer (in words) [1]
at least 6 hours | Clc1ccccc1C(c1ccccc1)(c1ccccc1)n1ccnc1 [clotrimazole, Clotrimazole] | poorly water soluble | –
– | CC(C(=O)O)c1ccc(-c2ccccc2)c(F)c1 (stereo not drawn) [flurbiprofen] | poorly soluble in water; also recorded: only slightly soluble | soluble in buffer
– | O=C([O-])c1ccccc1O.[Na+] [sodium salicylate] | very soluble | very soluble
